Where a name gives a salt, the structure may show the parent alone.
Legend:
Type in all cases: in vivo
[1] = Anxiolytic activity by the four-plates test; settings: mice; for change in vivo at 5 mg/kg: 5 mg.kg^-1; for % increase in the responses: p.o.
Experimental: The anxiolytic activity of the compounds of the general formula I was investigated in mice according to the method of Aron Simon Larousse and Boissier described in Neuropharmacology (1971) 10 p. 459-469). After treatment of the animals by means of different doses of the compounds of the invention administered intraperitoneally or orally, the increase in the percentage of transitions during the exploration of the base of the test cage, in the presence of electric shocks, was assessed.

[2] = Anxiolytic activity by the "staircase" test; parameters: key to % variation in the steps climbed: NS: not significant; settings: rats
Text: The anxiolytic activity of the compounds of the invention was investigated in rats according to the method described by Thiebot, Soubrie and Boissier in J. Pharmacol. 1976, 7, (1), p. 87-102. In this test, behavior involving rearing movements is associated with a state of distress of the animal. The number of steps climbed represents the normal exploratory behavior of the rat introduced into the enclosure. Normally, an efficacious anxiolytic compound should decrease, during the test which lasts 3 minutes, the number of rearing movements without modifying the number of steps climbed, or on the contrary should increase this latter parameter.

[3] = Inhibition of isolation-induced aggression in mice; settings: Mus musculus, ip, read-out: Inhibitory ED50 (effective dose inhibiting 50% of the aggressive animals)
Text: The compounds of general formula I inhibit the attacking behavior of mice rendered aggressive by isolation according to the method described by Yen, Stanger and Millman in Arch. Int. Pharmacodyn. 1959, 123, p. 179-185.

[4] = Inhibition of aggression in isolated and bulbectomized rats
Experimental: The inhibition of aggression was assessed according to the method described by Vergnes and Karli in C.R. Soc. Biol. 1963, 157, p. 1061. The effect on the aggression is assessed in terms of the percentage of animals which became non-killers after treatment.

[5] = Inhibition of the active conditioned avoidance response in rats; settings: i.p.
Text: The results obtained with the compounds of general formula I during the various experiments employing the method described by Courvoisier et al. in Arch. Int. Pharmacodyn., 1953, 92, p. 305-361 and by Janssen et al. in Arzneim, Forsch, 1965, 15, p.

[6] = Anxiolytic activity by MacMillan's conflict test; settings: rats, i.p., vs physiological saline; for % variation in the unpunished responses: NS (not significant); for % variation in the punished responses: S (significant)
Text: In these conditioning experiments which operate in the presence of a food reward, performed in rats according to the method described by MacMillan in Fed. Proceedings, 1975, 34, (9), p. 1870-1879, two parameters in the animal's behavioral responses are considered. The first parameter is the variation in the level of punished responses, in the presence of an electric shock, under the influence of the treatment in comparison with the level of punished responses under the influence of physiological saline. The second parameter is the variation in the level of unpunished responses, without an electric shock, under the influence of the same treatment, in comparison with the level of unpunished responses when physiological saline is administered. A specific anxiolytic effect is established when, after the administration of a substance, the level of only the punished responses is increased.

[7] = Mus musculus, ip, i.p., read-out: % increase in the responses (transitions)
[8] = Mus musculus, ip, i.p., 25 mg.kg^-1, read-out: % increase in the responses (transitions)
[9] = Mus musculus, ip, i.p., 10 mg.kg^-1, read-out: % increase in the responses (transitions)

Structure (SMILES): O=C1CN(Cc2ccccc2Cl)CC(=O)N1CCCN1CCN(c2cccc(C(F)(F)F)c2)CC1 [Example 4, 4-(2-Chlorobenzyl)-1-{3-[1-(3-trifluoromethylphenyl)-4-piperazinyl]propyl}-2,6-piperazinedione dimandelate]
- change in vivo at 5 mg/kg [1, 7]: 37%
- change in vivo at 25 mg/kg [1, 8]: 67%
- % increase in the responses ([1]; 25 mg.kg^-1): 35%
- % increase in the responses ([1]; 50 mg.kg^-1): 58%
- % variation in the rearing movements ([2]; i.p., 10 mg.kg^-1): -47%
- % variation in the steps climbed ([2]; i.p., 10 mg.kg^-1): NS

Structure (SMILES): Cl.Cl.Cl.O=C1CN(Cc2ccccc2)CC(=O)N1CCCCN1CCN(c2ncccn2)CC1 [Example 5, 4-Benzyl-1-{4-[1-(2-pyrimidinyl)-4-piperazinyl]butyl}-2,6-piperazinedione trihydrochloride]
- % variation in the rearing movements ([2]; i.p., 1,25 mg.kg^-1): -40%
- % variation in the steps climbed ([2]; i.p., 1,25 mg.kg^-1): NS

Structure (SMILES): COc1ccccc1CN1CC(=O)N(CCCCN2CCN(c3cccc(C(F)(F)F)c3)CC2)C(=O)C1.Cl.Cl [Example 6, 4-(2-Methoxybenzyl)-1-{4-[1-(3-trifluoromethylphenyl)-4-piperazinyl]butyl}-2,6-piperazinedione dihydrochloride]
- change in vivo at 25 mg/kg [1, 8]: 37%
- ED50 [3]: 4.74 mg/kg

Structure (SMILES): Cl.Cl.Cl.O=C1CN(Cc2ccccn2)CC(=O)N1CCCN1CCN(c2ccc(F)cc2)CC1 [Example 7, 4-(2-Pyridylmethyl)-1-{3-[1-(4-fluorophenyl)-4-piperazinyl]propyl}-2,6-piperazinedione trihydrochloride]
- % of non-killer animals ([4]; i.p., 25 mg.kg^-1): 67%
- % ICAR (percentage inhibition of the conditioned avoidance response) ([5]; 10 mg.kg^-1): 30%
- % ICAR (percentage inhibition of the conditioned avoidance response) ([5]; 15 mg.kg^-1): 48%
- % ICAR (percentage inhibition of the conditioned avoidance response) ([5]; 20 mg.kg^-1): 79%

Structure (SMILES): Cl.Cl.O=C1CN(Cc2ccccc2)CC(=O)N1CCN1CCN(c2cccc(C(F)(F)F)c2)CC1 [Example 10, 4-Benzyl-1-{2-[1-(3-trifluoromethylphenyl)-4-piperazinyl]ethyl}-2,6-piperazinedione dihydrochloride]
- change in vivo at 25 mg/kg [1, 8]: 85%
- % variation in the unpunished responses ([6]; 5 mg.kg^-1): +18%
- % variation in the punished responses ([6]; 5 mg.kg^-1): +67%
- % of non-killer animals ([4]; i.p., 25 mg.kg^-1): 66%

Structure (SMILES): COc1ccccc1CN1CC(=O)N(CCCN2CCN(c3ccc(C)cc3)CC2)C(=O)C1 [Example 14, 4-(2-Methoxybenzyl)-1-{3-[1-(4-methylphenyl)-4-piperazinyl]propyl}-2,6-piperazinedione]
- % variation in the unpunished responses ([6]; 5 mg.kg^-1): +14%
- % variation in the punished responses ([6]; 5 mg.kg^-1): +48%

Structure (SMILES): COc1ccccc1CN1CC(=O)N(CCCN2CCN(c3cccc(C(F)(F)F)c3)CC2)C(=O)C1.Cl.Cl [Example 15, 4-(2-Methoxybenzyl)-1-{3-[1-(3-trifluoromethylphenyl)-4-piperazinyl]propyl}-2,6-piperazinedione dihydrochloride]
- change in vivo at 20 mg/kg ([1]; Mus musculus, ip, i.p., 20 mg.kg^-1, read-out: % increase in the responses (transitions)): 52%
- % increase in the responses ([1]; 10 mg.kg^-1): 61%
- % increase in the responses ([1]; 50 mg.kg^-1): 90%
- % variation in the rearing movements ([2]; i.p., 10 mg.kg^-1): -43%
- % variation in the steps climbed ([2]; i.p., 10 mg.kg^-1): NS
- % variation in the rearing movements ([2]; i.p., 20 mg.kg^-1): -64%
- % variation in the steps climbed ([2]; i.p., 20 mg.kg^-1): NS
- % variation in the unpunished responses ([6]; 10 mg.kg^-1): +37%
- % variation in the punished responses ([6]; 10 mg.kg^-1): +41%
- % of non-killer animals ([4]; i.p., 25 mg.kg^-1): 64%

Structure (SMILES): COc1ccccc1CN1CC(=O)N(CCN2CCN(c3cccc(C(F)(F)F)c3)CC2)C(=O)C1 [Example 16, 4-(2-Methoxybenzyl)-1-{2-[1-(3-trifluoromethylphenyl)-4-piperazinyl]ethyl}-2,6-piperazinedione trihydrochloride]
- change in vivo at 10 mg/kg [1, 9]: 41%

Structure (SMILES): Cl.Cl.Cl.O=C1CN(Cc2ccccn2)CC(=O)N1CCCN1CCN(c2ccccc2Cl)CC1 [Example 17, 4-(2-Pyridylmethyl)-1-{3-[1-(2-chlorophenyl)-4-piperazinyl]propyl}-2,6-piperazinedione trihydrochloride]
- ED50 [3]: 6.11 mg/kg

Structure (SMILES): COc1ccccc1N1CCN(CCCN2C(=O)CN(Cc3ccccn3)CC2=O)CC1.Cl.Cl.Cl.Cl [Example 18, 4-(2-Pyridylmethyl)-1-{3-[1-(2-methoxyphenyl)-4-piperazinyl]propyl}-2,6-piperazinedione tetrahydrochloride]
- % ICAR (percentage inhibition of the conditioned avoidance response) ([5]; 10 mg.kg^-1): 18%
- % ICAR (percentage inhibition of the conditioned avoidance response) ([5]; 15 mg.kg^-1): 35%
- % ICAR (percentage inhibition of the conditioned avoidance response) ([5]; dose not printed in this line): 56%

Structure (SMILES): Cc1ccc(N2CCN(CCCN3C(=O)CN(Cc4ccccn4)CC3=O)CC2)cc1.Cl.Cl.Cl [Example 20, 4-(2-Pyridylmethyl)-1-{3-[1-(4-methylphenyl)-4-piperazinyl]propyl}-2,6-piperazinedione trihydrochloride]
- % variation in the rearing movements ([2]; i.p., 2,5 mg.kg^-1): -43%
- % variation in the steps climbed ([2]; i.p., 2,5 mg.kg^-1): NS

Structure (SMILES): Cl.Cl.Cl.O=C1CN(Cc2cccnc2)CC(=O)N1CCCN1CCN(c2cccc(Cl)c2)CC1 [Example 22, 4-(3-Pyridylmethyl)-1-{3-[1-(3-chlorophenyl)-4-piperazinyl]propyl}-2,6-piperazinedione trihydrochloride]
- change in vivo at 10 mg/kg [1, 9]: 44%
- % of non-killer animals ([4]; i.p., 12,5 mg.kg^-1): 83%

Structure (SMILES): Cc1ccccc1N1CCN(CCCN2C(=O)CN(C(c3ccccc3)c3ccccc3)CC2=O)CC1 [Example 23, 4-Diphenylmethyl-1-{3-[1-(2-methylphenyl)-4-piperazinyl]propyl}-2,6-piperazinedione trimethanesulfonate]
- change in vivo at 10 mg/kg [1, 9]: 47%
- change in vivo at 25 mg/kg [1, 8]: 77%

Structure (SMILES): O=C1CN(C(c2ccccc2)c2ccccc2)CC(=O)N1CCCN1CCN(c2cccc(C(F)(F)F)c2)CC1 [Example 24, 4-Diphenylmethyl-1-{3-[1-(3-trifluoromethylphenyl)-4-piperazinyl]propyl}-2,6-piperazinedione dimandelate]
- change in vivo at 25 mg/kg [1, 8]: 62%

Structure (SMILES): O=C1CN(C(c2ccccc2)c2ccc(Cl)cc2)CC(=O)N1CCCN1CCN(c2cccc(C(F)(F)F)c2)CC1 (stereo not shown) [Example 26, 4-(4-Chlorodiphenylmethyl)-1-{3-[1-(3-trifluoromethylphenyl)-4-piperazinyl]propyl}-2,6-piperazinedione dicitrate]
- % increase in the responses ([1]; 25 mg.kg^-1): 69%

Structure (SMILES): O=C1CN(C2CCCCC2)CC(=O)N1CCCN1CCN(c2cccc(C(F)(F)F)c2)CC1 [Example 27, 4-Cyclohexyl-1-{3-[1-(3-trilfuoromethylphenyl)-4-piperazinyl]propyl}-2,6-piperazinedione dihydrochloride]
- change in vivo at 25 mg/kg [1, 8]: 73%
- % variation in the rearing movements ([2]; i.p., 2,5 mg.kg^-1): -41%
- % variation in the steps climbed ([2]; i.p., 2,5 mg.kg^-1): NS

Structure (SMILES): O=C1CN(CCCN2CCN(c3cccc(C(F)(F)F)c3)CC2)CC(=O)N1Cc1ccccc1 [Example 28, 1-Benzyl-4-{3-[1-(3-trifluoromethylphenyl)-4-piperazinyl]propyl}-2,6-piperazinedione diphosphate]
- change in vivo at 25 mg/kg [1, 8]: 82%

Structure (SMILES): COc1cccc(CN2C(=O)CN(CCCN3CCN(c4cccc(C(F)(F)F)c4)CC3)CC2=O)c1 [Example 29, 1-(3-Methoxybenzyl)-4-{3-[1-(3-trifluoromethylphenyl)-4-piperazinyl]propyl}-2,6-piperazinedione diphosphate]
- change in vivo at 25 mg/kg [1, 8]: 49%

Structure (SMILES): O=C1CN(Cc2ccccc2F)CC(=O)N1CCCN1CCN(c2ccc(C(F)(F)F)cn2)CC1 [Example 30, 4-(2-Fluorobenzyl)-1-{3-[1-(5-trifluoromethyl-2-pyridinyl)-4-piperazinyl]propyl}-2,6-piperazinedione dihydrochloride]
- change in vivo at 5 mg/kg [1, 7]: 40%
